# Measurements as given in patent publication US9951055B2, “Thiazole-based inhibitors of scavenger receptor BI” (THE BROAD INSTITUTE, INC., priority 2012, dated 2018).
# Entries after “also recorded” stand apart in the source; their conditions may differ. Counter-ions that a name gives are not always drawn. Like-named read-outs stand apart in the source and are kept apart here.
# Assays:
# murine SR-BI = biological target: T1, murine SR-BI (Mus musculus, UniProt Q61009); experiment: DiI-HDL uptake assay (primary assay); assay type: cell-based
# T1 construct: expressed in transfected cells; host or cells: ldlA[mSR-BI]; (CHO ldlA7 derivative lacking the LDL receptor)
# T1 sequence (Q61009 1-509): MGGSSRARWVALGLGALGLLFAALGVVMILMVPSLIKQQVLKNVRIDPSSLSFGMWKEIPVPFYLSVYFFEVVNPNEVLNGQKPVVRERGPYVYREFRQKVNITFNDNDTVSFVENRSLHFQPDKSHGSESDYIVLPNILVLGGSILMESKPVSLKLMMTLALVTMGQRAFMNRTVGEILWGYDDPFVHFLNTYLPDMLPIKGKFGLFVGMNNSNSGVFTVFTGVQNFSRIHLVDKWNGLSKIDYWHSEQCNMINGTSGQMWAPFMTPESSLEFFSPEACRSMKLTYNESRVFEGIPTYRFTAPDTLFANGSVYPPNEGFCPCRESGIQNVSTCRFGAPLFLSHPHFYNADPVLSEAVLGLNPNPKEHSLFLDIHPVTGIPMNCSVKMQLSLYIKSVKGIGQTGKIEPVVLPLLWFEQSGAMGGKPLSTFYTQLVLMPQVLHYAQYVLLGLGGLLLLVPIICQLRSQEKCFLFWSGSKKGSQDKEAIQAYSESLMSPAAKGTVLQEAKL
# Source text: The following cell lines were used in this study: • ldlA[mSR-BI] is a Chinese hamster ovary (CHO) cell line that overexpresses murine SR-BI, isoform 1 (NP_058021) and was obtained from the Assay Provider (Krieger Laboratory). This cell line was used for the primary assay and several secondary assays. […] This cell line was obtained from the Assay Provider. Assays DiI-HDL Uptake Assay (Primary Assay AID Nos. 488896, 493194, 540354 588392, 588553, 588548, 588754, 588828, 588833)
# ldlA[mSR-BI]cells were plated into 384-well plates at 30 μl per well and incubated overnight. As a measurable surrogate for cholesterol uptake, human HDL particles were treated with the lipophilic fluorescent dye DiI and exposed to ldlA[mSR-BI]cells in lipoprotein-free media (Ham's F12/0.5% fatty acid-free Bovine Serum Albumin (BSA)/25 mM HEPES pH 7.4 plus 10 μg protein/ml DiI-HDL). Cells took up the DiI via SR-BI over 3 hours in the presence of compound. After significant uptake of the DiI, the cells became fluorescent. The level of fluorescence correlates with the amount of DiI uptake and can be measured with a standard plate reader (here a PerkinElmer EnVision plate reader was used). The uptake of lipid (represented by DiI) was inhibited by the positive control compound BLT-1 or with an excess of HDL untreated with DiI. Primary HTS data were analyzed in Genedata Screener Assay Analyzer, and were normalized against DMSO and the positive control (1 μM BLT-1). For the HTS, the average of two replicates was used to rank order activity and to choose compounds for retests. For dose studies, percent (%) activity was determined for each concentration and the concentration response curves (CRCs) were generated with Genedata Condeseo.
# To identify novel inhibitors, SR-BI-mediated lipid uptake was measured in an engineered cell line that minimized potential uptake by other mechanisms, including via the LDL receptor (1). ldlA[mSR-BI]cells overexpress murine isoform 1 and selectively take up HDL lipid at similar levels as “has been reported for cultured mouse adrenal cells, perfused organs, and liver, adrenal gland and ovary in vivo” (1). This primary cell-based assay was used in a pilot screen that identified BLTs 1 through 5 (12). The assay was slightly modified from the original protocol of Nieland et al. to increase throughput and to ease automation procedures.
# [1] = tested on: Jc1 378-1 TagRFP reporter HCV virus; experiment: In vitro inhibition of HCV in Huh-7.5 cells; assay type: cell-based, hepatitis C virus; settings: for inhibition of HCV replication: Huh-7.5 cells, MOI=0.1, 3 dpi; for mean fluorescence intensity (MFI) of HCV positive cells: normalized to DMSO control
# Method: The compound of formula (II) was also tested for the in vitro inhibition of HCV. Huh-7.5 cells were seeded in a 24-well plates (50,000 cells/well) and incubate over night. The medium was changed to compound/solvent containing medium 2 hours prior to infection (200 μL/well) with a reporter HCV virus called Jc1 378-1 TagRFP. A dilute virus stock was used to infect at a MOI of 0.1 (7,500 IU/well) in 10 μL medium. 10 μL of virus dilution was added to the wells containing compound/solvent (thereby dilution the compounds by only ˜5%). Infections were incubated for 4 hours before washing off the inoculum 1× with 500 μL medium. Fresh compound/solvent containing medium was added to the cells (500 μL/well), and further incubated for 48-72 hours. Cells were harvested at 48-72 hpi and viral replication was determined by fixing the cells and measuring replication by FACS (fluorescence activated cell sorting). Controls having antibodies that neutralize HCV by blocking E2 (2 μg/mL) and controls having antibodies that block a HCV receptor CD81 (2 μg/mL) were used.
# A series of tests were conducted using the compound of Formula II ML278), other known inhibitors of SRB1 and controls with cells infected with hepatitis C virus (HCV). The cells (Huh-7.5 cells infected with Jc1 378-1 TagRFP (MOI=0.1) 3 dpi) were treated with the following SR-BI compounds and controls:
# Three different infection protocols were followed: (1) no wash—virus inoculum was removed 4 hpi and fresh medium containing compounds added without washing cells; (2) 5× wash—virus inoculum was removed 4 hpi, cells were washed 5× with PBS and fresh medium containing compounds added; and (3) no wash Opt—infection were performed in serum-free OptiMem; virus inoculum was removed 4 hpi and fresh medium containing compounds added without washing cells. FIG. 107 provides a comparison of the three different infection set-ups. FIG. 108 provides a comparison of two independent experiments.
# [2] = tested on: endocytosis of transferrin; experiment: Transferrin endocytosis assay; assay type: cell-based
# Source text: Transferrin Endocytosis Assay (SA 3: AID No. 602134) This assay measures the endocytosis of an independent ligand, transferrin, which is not taken up via SR-BI but by clathrin-mediated endocytosis. This assay provides a measure of the selectivity of the inhibitors. Alexa-594-labeled transferrin is taken into the cell via endocytosis and localization of labeled transferrin was quantitated in the various intracellular compartments. […] Inhibitors of interest should act selectively at SR-BI and should have no activity in this assay. Cells were pre-treated with compound for 3 hours and then treated with the Alexa-594 transferrin reagent for 30 minutes (Catalog No. T-13343; Invitrogen) in serum-free media. Plates of cells were then placed onto ice, washed with ice cold PBS, and then fixed with 4% paraformaldehyde. In addition, the nuclei were stained with 300 nM 4′,6-diamidino-2-phenylindole (DAPI) (Catalog No. 21490; Invitrogen). The cells were imaged with the Molecular Devices IXM microscope (FIG. 22). Translocation measurements were performed using MetaExpress software and normalized for cell number.
compound,measurement,setting,value
"COc1cc(OC)cc(C(=O)Nc2nc(-c3ccc4c(c3)CCN4C(=O)OC(C)(C)C)cs2)c1 [Boc carbamate, tert-Butyl 5-(2-(3,5-dimethoxybenzamido)thiazol-4-yl)indoline-1-carboxylate]",IC50,"murine SR-BI; read-out: IC50, DiI-HDL uptake",900 pM
COc1c(NC(=O)C(=O)c2ccc(OCCN3CCOCC3)c3ccccc23)cc(C(C)(C)C)cc1NS(C)(=O)=O [ITX-5061],inhibition of HCV replication,[1]; listed as SRB1-9,inhibited viral replication; also recorded: able to inhibit HCV replication
same,mean fluorescence intensity (MFI) of HCV positive cells,[1],this increase was not seen
CC(=O)Nc1ccc(Cl)c(C(=O)Nc2ccc(N3CCN(C(=O)OC(C)(C)C)CC3)cc2)c1 [Compound R-154716],inhibition of HCV replication,[1]; listed as SRB1-2,inhibited viral replication; also recorded: able to inhibit HCV replication
same,mean fluorescence intensity (MFI) of HCV positive cells,[1],increased mean fluorescence intensity (MFI) of HCV positive cells in a dose dependent manner
CCC(=O)N1CCc2cc(-c3csc(NC(=O)c4ccco4)n3)ccc21 [MLS001217863],endocytosis of transferrin,[2],not grossly perturbing cellular membrane trafficking pathways
same,IC50,"murine SR-BI; range, read-out: range of IC50 for HDL-mediated lipid uptake",930 to 6000 pM
"COc1cc(OC)cc(C(=O)Nc2nc(-c3ccc4c(c3)CCN4)cs2)c1 [N-(4-(Indolin-5-yl)thiazol-2-yl)-3,5-dimethoxybenzamide, trifluoroacetic acid salt]",loss of activity/potency relative to parent analog,murine SR-BI,approximately 3 fold
